# Laboratory results from US20220380383A1, “NEUROPROTECTIVE PDI MODULATING SMALL MOLECULES AND METHODS OF USE THEREOF” (THE TRUSTEES OF COLUMBIA UNIVERSITY IN THE CITY OF NEW YORK, priority 2018, published 2022).
# Where two headings read alike, the source gives them in different places.
# Assays:
# [1] = tested on: PC12 mHTTQ103 cells; test: Rescue of PC12 cells from mHTTQ103-induced cell death; type: cell-based, rat; details: for EC50: Rattus norvegicus, PC-12
# [2] = Solubility (stock solvent)
# [3] = biological target: T1, human catalytic PDI A1 a domain (PDIa) (Homo sapiens, UniProt P07237); test: Isothermal titration calorimetry (ITC) binding to PDIa
# T1 construct: made in house; host or cells: Escherichia coli BL21-Gold (DE3)
# Description: All ITC experiments were carried out at 25° C. on MicoCal Auto-ITC200 system (GE Healthcare). […] ITC titration experiments were carried out at 25° C. with 19 injections, 2 μl per injection, and 180 seconds between each injection. The reference cell power was set to 5 μcal/sec. A control experiment was performed for each compound, where each compound was titrated into buffer to account for heat released due to dilution. This background was subtracted from test data before a final dissociation constant was obtained. […] Gibbs free energy, ΔG, was calculated from equation ΔG=ΔH-TΔS. All other parameters, Ka, n, ΔH, ΔS, were determined directly from the titration data.
# LOC14 analogs were designed and synthesized as described in the synthetic schemes. The analogs were evaluated for their binding to PDIa using isothermal titration calorimetry (ITC) (results of certain compounds are shown in FIGS. 1A-1E). Next, the analogs were tested for their ability to rescue PC12 cells from mHTT^Q103 induced cell death in a dose-dependent manner (results of certain compounds are shown in FIG. 2).
# [4] = physchem; details: organic solvent or mixture
# [5] = rescue from mHTTQ103 induced cell death
# [6] = Tables 5-13, solvent not given (DMSO in Table 1)
# [7] = Tables 5-13, PC12 cells, read-out: EC50
# [8] = rescue from mHTTQ103 induced cell death, read-out: PC12 cells EC50
# [9] = N/A = not active, read-out: ITC KD
# [10] = Tables 5-13, NA = not active, read-out: Kd
# T1 sequence (P07237 18-134): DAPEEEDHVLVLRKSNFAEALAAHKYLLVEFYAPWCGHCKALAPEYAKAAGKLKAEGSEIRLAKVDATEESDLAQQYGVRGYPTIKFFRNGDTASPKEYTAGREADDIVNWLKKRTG
SMILES,"Max Viability (%) ([1]; Tables 5-13, PC12 cells)","PC12 cells EC50 [1, 5]","PC12 cells Max % Viability [1, 5]",Solubility [2],"Solubility [2, 6]",ITC KD ([3]; N/A = not active),"EC50 [1, 7]","EC50 [1, 8]","Kd [3, 9]","Kd [3, 10]",other results
O=C(C1CC1)N1CCN(Cn2sc3c(C(F)(F)F)cccc3c2=O)CC1 [LC-42],8%,Not Active,8.17%,100 mM in DMSO,100 mM,KD = N/A irreversible or not active,,,,,
"NC(=O)c1cccc(F)c1SSc1c(F)cccc1C(N)=O [LC-44, 2,2′-disulfanediylbis(3-fluorobenzamide)]",,,87.19%,100 mM in DMSO,,KD = N/A irreversible or not active,,,,,
NC(=O)c1cccc(C(F)(F)F)c1SSc1c(C(N)=O)cccc1C(F)(F)F [LC-45],,Not Active,16.98%,100 mM in DMSO,,KD = N/A irreversible or not active,,,,,
O=C(C1CC1)N1CCN(Cn2sc3ncccc3c2=O)CC1 [LC-46],39%,,39.23%,,,,2830 nM,2830 nM,9.6 nM,,"Solubility ([4]; DMSO): 50 mM; Solubility [4]: 50 mM; Kd ([3]; ITC assay, read-out: KD): 10 nM"
O=c1ssc2ccccc12 [LC-48],8%,Not Active,8.14%,100 mM in DMSO,100 mM,KD = N/A irreversible or not active,,,,,
S=c1ssc2ccccc12 [LC-49],9%,Not Active,8.75%,100 mM in DMSO,100 mM,KD = N/A irreversible or not active,,,,,
O=c1c2cccnc2sn1CCN1CCCCC1 [LC-54],11%,Not Active,10.67%,100 mM in DMSO,100 mM,,,,< 20 nM,≤ 20 nM,
O=c1c2cccnc2sn1CCN1CCOCC1 [LC-55],13%,Not Active,13.20%,100 mM in DMSO,100 mM,,,,20.1 nM,20 nM,
O=c1c2cccnc2sn1CCC1CCNCC1 [LC-56],14%,Not Active,14.03%,100 mM in DMSO,100 mM,KD = N/A irreversible or not active,,,,,
"Cc1nnc2s[nH]c(=O)c2c1C [LC-57, 4,5-dimethylisothiazolo[5,4-c]pyridazin-3(2H)-one]",54%,,54.15%,100 mM in DMSO,100 mM,,12200 nM,,17.5 nM,18 nM,
"C[C@H](c1ccccc1)n1sc2ncccc2c1=O [LC-58, (R)-2-(1-phenylethyl)isothiazolo[5,4-b]pyridin-3(2H)-one]",14%,Not Active,13.62%,100 mM in DMSO,100 mM,,,,0.3 nM,0.3 nM,
"Cc1ccc2c(=O)[nH]sc2c1 [LC-60, 6-Methylbenzo[d]isothiazol-3(2H)-one]",60%,,59.49%,100 mM in DMSO,100 mM,,562 nM,562 nM,347 nM,347 nM,
"Cc1ccc2s[nH]c(=O)c2c1 [LC-61, 5-Methylbenzo[d]isothiazol-3(2H)-one]",65%,,64.68%,100 mM in DMSO,100 mM,,591 nM,591 nM,267 nM,267 nM,
"Cc1ccc2c(=O)n(CN3CCN(C(=O)C4CC4)CC3)sc2c1 [LC-62, 2-((4-(cyclopropanecarbonyl)piperazin-1-yl)methyl)-6-methylbenzo[d]isothiazol-3(2H)-one]",54%,,54.31%,,,,1580 nM,1580 nM,662 nM,662 nM,Solubility ([4]; DMSO): 50 mM; Solubility [4]: 50 mM
"Cc1ccc2sn(CN3CCN(C(=O)C4CC4)CC3)c(=O)c2c1 [LC-63, 2-((4-(cyclopropanecarbonyl)piperazin-1-yl)methyl)-5-methylbenzo[d]isothiazol-3(2H)-one]",66%,,,,,,659 nM,659 nM,240 nM,240 nM,Solubility ([4]; DMSO): 50 mM; Solubility [4]: 50 mM
"O=c1c2ccccc2sn1CN1CCC(N2CCCCC2)CC1 [LC-64, 2-([1,4′-bipiperidin]-1′-ylmethyl)benzo[d]isothiazol-3(2H)-one]",81%,,81.43%,,,,393 nM,393 nM,,1210 nM,Solubility ([4]; DMSO): 50 mM; Solubility [4]: 50 mM; Kd ([3]; read-out: ITC KD): 1210 nM
"C#CCn1sc2ccccc2c1=O [LC-66, 2-(prop-2-yn-1-yl)benzo[d]isothiazol-3(2H)-one]",,,40.34%,100 mM in DMSO,,,,763 nM,,,"Kd ([3]; two-site binding, first site, read-out: ITC KD1): 30.7 nM; Kd ([3]; two-site binding, second site, read-out: ITC KD2): 14400 nM"
"O=c1c2ccccc2on1Cc1ccccc1 [LC-67, 2-benzylbenzo[d]isoxazol-3(2H)-one]",,not active,8.05%,100 mM in DMSO,,Not active or irreversible,,,,,
"O=c1c2cccnc2sn1CN1CCN(Cn2sc3ncccc3c2=O)CC1 [LC-68, 2,2′-(piperazine-1,4-diylbis(methylene))bis(isothiazolo[5,4-b]pyridin-3(2H)-one)]",36%,,35.78%,,,Not active or irreversible,2060 nM,2060 nM,,,"Solubility ([4]; NMP (N-Methyl-2-Pyrrolidine)): 5 mM; Solubility ([4]; NMP): 5 mM; ITC binding ([3]; FIG. 1, PDI A1a titrated into compound in 0.8% NMP): no binding"
"Cc1nc2sn(CN3CCN(Cn4sc5nc(C)c(C)c(C)c5c4=O)CC3)c(=O)c2c(C)c1C [LC-71, 2,2′-(piperazine-1,4-diylbis(methylene))bis(4,5,6-trimethylisothiazolo[5,4-b]pyridin-3(2H)-one)]",41%,,40.98%,,,,1020 nM,1020 nM,,,Solubility ([4]; NMP (N-Methyl-2-Pyrrolidine)): 2.5 mM; Solubility ([4]; NMP): 2.5 mM
"Cc1nnc2sn(CN3CCN(Cn4sc5nnc(C)c(C)c5c4=O)CC3)c(=O)c2c1C [LC-72, 2,2′-(piperazine-1,4-diylbis(methylene))bis(4,5-dimethylisothiazolo[5,4-c]pyridazin-3(2H)-one)]",10%,Not Active,10.26%,,,,,,,,Solubility ([4]; NMP (N-Methyl-2-Pyrrolidine)): 1 mM; Solubility ([4]; NMP): 1 mM
